Counter-ions that a name gives are not always drawn.
Test: Bloodwork: complete blood count, electrolytes, extended blood chemistry
Assay type: in vivo, sheep
Procedure: Indirect blood pressure, pulse recording, pain testing (mechanical stimulus device, cold and warm water baths see description in procedure) and weight were taken on days 1, 3, 7, 15, 22, 29, 36, and 43. Venous blood samples (15 ml drawn from the jugular vein with Vacutainer brand blood collection tubes) for complete blood count, electrolytes, and extended blood chemistry were drawn on days 1, 15, and 43 (mild procedure only light hand restraint necessary).

[1] = sheep Elmer Fudd #437, 5 mg/day, Day 43
[2] = sheep Leghorn II #815, 15 mg/day, Baseline
[3] = sheep Leghorn II #815, 15 mg/day, Day 1
[4] = sheep Leghorn II #815, 15 mg/day, Day 15
[5] = sheep Leghorn II #815, 15 mg/day, Day 43
[6] = sheep Petunia #439, 15 mg/day, Baseline
[7] = sheep Petunia #439, 15 mg/day, Day 1
[8] = sheep Petunia #439, 15 mg/day, Day 15
[9] = sheep Petunia #439, 15 mg/day, Day 43
[10] = sheep Porky #402, 5 mg/day, Baseline
[11] = sheep Porky #402, 5 mg/day, Day 1
[12] = sheep Porky #402, 5 mg/day, Day 15
[13] = sheep Porky #402, 5 mg/day, Day 43

## Cc1ncc2n1-c1ccc(Cl)cc1C(c1ccccc1F)=NC2 [Midazolam, midazolam hydrochloride]
[1]
  CPK: 64 U/L
  Cholesterol: 90 mg/dL
  Creatinine: 1.3 mg/dL
  Differential Count: Atyp lym: 0%
  Differential Count: Bands: 0%
  Differential Count: Eosin: 2%
  Differential Count: Lymph: 38%
  Differential Count: Mono: 1%
  Differential Count: Seg: 59%
  Gamma GT: 48 U/L
  Glucose: 83 mg/dL
  Hct: 34.6%
  Hgb: 11.8 g/dL
  K+: 4.3 mEq/l
  MCH: 10.8 pg
  MCHC: 34.2 G/dl
  MCV: 31.7 fL
  Na+: 147 mEq/l
  Phos: 6.2 mg/dL
  Platlet Count: 540000 µL⁻¹
  RBC: 1.09e+07 µL⁻¹
  Total Bili: 0.1 mg/dL
  Total Prot: 6.6 g/dL
  WBC: 4650 µL⁻¹
[2]
  Differential Count: Atyp lym: 0%
  Differential Count: Baso: 0%
  Differential Count: Eosin: 4%
  Differential Count: Lymph: 79%
  Differential Count: Mono: 3%
  Differential Count: Seg: 14%
  Hct: 36.9%
  Hgb: 12.5 g/dL
  MCH: 10.7 pg
  MCHC: 33.9 G/dl
  MCV: 31.5 fL
  Platlet Count: 516000 µL⁻¹
  RBC: 1.17e+07 µL⁻¹
  WBC: 6730 µL⁻¹
[3]
  ALT: 14 U/L
  AST: 117 U/L
  Albumin: 3.5 g/dL
  Alk Phos: 117 U/L
  BUN: 19 mg/dL
  CPK: 94 U/L
  Cholesterol: 68 mg/dL
  Creatinine: 0.9 mg/dL
  Differential Count: Atyp lym: 0%
  Differential Count: Baso: 0%
  Differential Count: Eosin: 2%
  Differential Count: Lymph: 58%
  Differential Count: Mono: 2%
  Differential Count: Seg: 28%
  Gamma GT: 80 U/L
  Glucose: 80 mg/dL
  Hct: 34.7%
  Hgb: 11.8 g/dL
  K+: 5.0 mEq/l
  MCH: 10.6 pg
  MCHC: 34.0 G/dl
  MCV: 31.1 fL
  Na+: 146 mEq/l
  Phos: 8.3 mg/dL
  Platlet Count: 828000 µL⁻¹
  RBC: 1.11e+07 µL⁻¹
  Total Bili: 0 mg/dL
  Total Prot: 6.3 g/dL
  WBC: 6070 µL⁻¹
[4]
  Differential Count: Atyp lym: 0%
  Differential Count: Baso: 0%
  Differential Count: Eosin: 16%
  Differential Count: Lymph: 59%
  Differential Count: Mono: 1%
  Differential Count: Seg: 24%
  Hct: 38.0%
  Hgb: 12.4 g/dL
  MCH: 10.4 pg
  MCHC: 32.7 G/dl
  MCV: 31.8 fL
  Platlet Count: 861000 µL⁻¹
  RBC: 1.2e+07 µL⁻¹
  WBC: 6640 µL⁻¹
[5]
  Differential Count: Atyp lym: 0%
  Differential Count: Baso: 1%
  Differential Count: Eosin: 2%
  Differential Count: Lymph: 77%
  Differential Count: Mono: 2%
  Differential Count: Seg: 18%
  Hct: 36.4%
  Hgb: 12.3 g/dL
  MCH: 10.5 pg
  MCHC: 33.7 G/dl
  MCV: 31.2 fL
  Platlet Count: 345000 µL⁻¹
  RBC: 1.17e+07 µL⁻¹
  WBC: 6110 µL⁻¹
[6]
  Differential Count: Atyp lym: 0%
  Differential Count: Bands: 0%
  Differential Count: Eosin: 130%
  Differential Count: Lymph: 53%
  Differential Count: Mono: 7%
  Differential Count: Seg: 27%
  Hct: 41.1%
  Hgb: 14.0 g/dL
  MCH: 11.5 pg
  MCHC: 34.2 G/dl
  MCV: 33.6 fL
  Platlet Count: 489000 µL⁻¹
  RBC: 1.22e+07 µL⁻¹
  WBC: 3120 µL⁻¹
[7]
  ALT: 0 U/L
  AST: 102 U/L
  Albumin: 3.6 g/dL
  Alk Phos: 43 U/L
  BUN: 10 mg/dL
  CPK: 84 U/L
  Cholesterol: 60 mg/dL
  Creatinine: 1.1 mg/dL
  Differential Count: Atyp lym: 2%
  Differential Count: Bands: 1%
  Differential Count: Eosin: 1%
  Differential Count: Lymph: 50%
  Differential Count: Mono: 6%
  Differential Count: Seg: 40%
  Gamma GT: 84 U/L
  Glucose: 71 mg/dL
  Hct: 42.4%
  Hgb: 14.4 g/dL
  K+: 5.4 mEq/l
  MCH: 11.3 pg
  MCHC: 33.9 G/dl
  MCV: 33.3 fL
  Na+: 152 mEq/l
  Phos: 7.9 mg/dL
  RBC: 1.27e+07 µL⁻¹
  Total Bili: 0 mg/dL
  Total Prot: 6.6 g/dL
  WBC: 2920 µL⁻¹
Sheep Petunia #439, 15 mg/day, Day 1, platelet clumps observed
  Platlet Count: 715• ×10^3/μl
[8]
  ALT: 1 U/L
  AST: 94 U/L
  Albumin: 4.0 g/dL
  Alk Phos: 29 U/L
  BUN: 14 mg/dL
  CPK: 105 U/L
  Cholesterol: 61 mg/dL
  Creatinine: 1.2 mg/dL
  Differential Count: Atyp lym: 1%
  Differential Count: Bands: 0%
  Differential Count: Eosin: 2%
  Differential Count: Lymph: 46%
  Differential Count: Mono: 3%
  Differential Count: Seg: 48%
  Gamma GT: 74 U/L
  Glucose: 93 mg/dL
  Hct: 30.8%
  Hgb: 10.1 g/dL
  K+: 4.3 mEq/l
  MCH: 11.2 pg
  MCHC: 32.7 G/dl
  MCV: 34.2 fL
  Na+: 150 mEq/l
  Phos: 4.9 mg/dL
  RBC: 9.02e+06 µL⁻¹
  Total Bili: 0.3 mg/dL
  Total Prot: 7.2 g/dL
  WBC: 3600 µL⁻¹
Sheep Petunia #439, 15 mg/day, Day 15, platelet clumps observed
  Platlet Count: 606• ×10^3/μl
[9]
  ALT: 0 U/L
  AST: 97 U/L
  Albumin: 3.6 g/dL
  Alk Phos: 49 U/L
  BUN: 17 mg/dL
  CPK: 91 U/L
  Cholesterol: 65 mg/dL
  Creatinine: 1.2 mg/dL
  Differential Count: Atyp lym: 1%
  Differential Count: Bands: 0%
  Differential Count: Eosin: 7%
  Differential Count: Lymph: 47%
  Differential Count: Mono: 4%
  Differential Count: Seg: 41%
  Gamma GT: 77 U/L
  Glucose: 68 mg/dL
  Hct: 36.0%
  Hgb: 11.8 g/dL
  K+: 5.2 mEq/l
  MCH: 11.2 pg
  MCHC: 32.7 G/dl
  MCV: 34.1 fL
  Na+: 146 mEq/l
  Phos: 6.2 mg/dL
  Platlet Count: 356000 µL⁻¹
  RBC: 1.05e+07 µL⁻¹
  Total Bili: 0.1 mg/dL
  Total Prot: 6.3 g/dL
  WBC: 2300 µL⁻¹
[10]
  Differential Count: Atyp lym: 0%
  Differential Count: Bands: 0%
  Differential Count: Eosin: 2%
  Differential Count: Lymph: 48%
  Differential Count: Mono: 2%
  Differential Count: Seg: 48%
  Hct: 40.7%
  Hgb: 13.5 g/dL
  MCH: 12.4 pg
  MCHC: 33.2 g/dL
  MCV: 37.2 fL
  Platlet Count: 215000 µL⁻¹
  RBC: 1.09e+07 µL⁻¹
  WBC: 3530 µL⁻¹
[11]
  ALT: 3 U/L
  AST: 67 U/L
  Albumin: 3.5 g/dL
  Alk Phos: 37 U/L
  BUN: 10 mg/dL
  CPK: 73 U/L
  Cholesterol: 71 mg/dL
  Creatinine: 1.3 mg/dL
  Differential Count: Atyp lym: 0%
  Differential Count: Bands: 0%
  Differential Count: Eosin: 1%
  Differential Count: Lymph: 41%
  Differential Count: Mono: 5%
  Differential Count: Seg: 53%
  Gamma GT: 46 U/L
  Glucose: 72 mg/dL
  Hct: 40.4%
  Hgb: 13.4 g/dL
  K+: 4.6 mEq/l
  MCH: 12.3 pg
  MCHC: 33.1 g/dL
  MCV: 37.1 fL
  Na+: 153 mEq/l
  Phos: 7.5 mg/dL
  Platlet Count: 319000 µL⁻¹
  RBC: 1.09e+07 µL⁻¹
  Total Bili: 0 mg/dL
  Total Prot: 6.8 g/dL
  WBC: 3470 µL⁻¹
[12]
  ALT: 8 U/L
  AST: 69 U/L
  Albumin: 3.9 g/dL
  Alk Phos: 33 U/L
  BUN: 14 mg/dL
  CPK: 94 U/L
  Cholesterol: 3.5 mg/dL
  Creatinine: 1.2 mg/dL
  Differential Count: Atyp lym: 0%
  Differential Count: Bands: 0%
  Differential Count: Eosin: 1%
  Differential Count: Lymph: 33%
  Differential Count: Mono: 5%
  Differential Count: Seg: 61%
  Gamma GT: 74 U/L
  Glucose: 89 mg/dL
  Hct: 31.4%
  Hgb: 10.2 g/dL
  K+: 4.2 mEq/l
  MCH: 12.3 pg
  MCHC: 32.3 g/dL
  MCV: 38.2 fL
  Na+: 150 mEq/l
  Phos: 48 mg/dL
  Platlet Count: 173000 µL⁻¹
  RBC: 8.23e+06 µL⁻¹
  Total Bili: 0.2 mg/dL
  Total Prot: 7.4 g/dL
  WBC: 3170 µL⁻¹
[13]
  ALT: 13 U/L
  AST: 59 U/L
  Albumin: 3.5 g/dL
  Alk Phos: 55 U/L
  BUN: 17 mg/dL
  CPK: 93 U/L
  Cholesterol: 62 mg/dL
  Creatinine: 1.3 mg/dL
  Differential Count: Atyp lym: 1%
  Differential Count: Bands: 0%
  Differential Count: Eosin: 5%
  Differential Count: Lymph: 40%
  Differential Count: Mono: 5%
  Differential Count: Seg: 49%
  Gamma GT: 42 U/L
  Glucose: 61 mg/dL
  Hct: 39.2%
  Hgb: 12.2 g/dL
  K+: 4.8 mEq/l
  MCH: 12.0 pg
  MCHC: 31.8 g/dL
  MCV: 37.6 fL
  Na+: 147 mEq/l
  Phos: 5.9 mg/dL
  Platlet Count: 214000 µL⁻¹
  RBC: 1.04e+07 µL⁻¹
  Total Bili: 0.1 mg/dL
  Total Prot: 6.4 g/dL
  WBC: 3590 µL⁻¹
